Results taken from US7148218B2 (priority 2001, dated 2006).
Read-outs that look alike come from different tables or passages of the source.

Experiments:
Experiment in all cases: cells
[1] = tested on: HCT 116 colon carcinoma; format: cell-based; details: 3-day exposure, average of two or more separate experiments, read-out: IC50 HCT116
Excerpt: (§1) As indicated above, all of the compounds of formula I are anti-tumor agents and are, therefore, useful in inhibiting the growth of various lymphomas, sarcomas, carcinomas, myelomas, and leukemia cell lines. […] This assay was adapted from the 60 cell line assay used by the National Cancer Institute (NCI) with the following modifications: • 1) four cell lines representative for the important tumor types, viz., MIP 101 colon carcinoma, HCT 116 colon carcinoma, 1A9 ovarian carcinoma and 1A9PTX22 ovarian carcinoma, were utilized; and 2) a tetrazolium derivative, viz., MTT, was utilized to determine cell density.
(§2) The ADGMA compares the number of viable cells following a 3-day exposure to a test compound relative to the number of cells present at the time the test compound was added. […] The absorbance at 540 nm (A540) of the formazan derivative is proportional to the number of viable cells. The IC50 for a test compound is the concentration of compound required to reduce the final cell number to 50% of the final control cell number. If cell proliferation is inhibited, the assay further defines compounds as cytostatic (cell number after 3-day compound incubation >cell number at time of compound addition) or cytotoxic (cell number after 3-day compound incubation <cell number at time of compound addition).
The HCT 116 colon carcinoma cell line was obtained from the American Type Culture Collection (ATCC, Rockville, Md.). The MIP 101 colon carcinoma cell line was obtained from Dr. Robert Kramer (Bristol Meyers Squibb) and was previously described (Niles R M, Wilhelm S A, Steele G D JR, Burke B, Christensen T, Dexter D, O'Brien M J, Thomas P, Zamcheck N. Isolation and characterization of an undifferentiated human colon carcinoma cell line (MIP-101). Cancer Invest. 1987;5(6):545–52.). […]
Cells are trypsinized and counted using a hemacytometer to determine cell concentrations. […] Initial cell densities, assayed one day after plating, are roughly 0.10–0.20 A540 absorbance units greater than the media blank. […]

[2] = tested on: MIP 101 colon carcinoma; format: cell-based, human; details: 3-day exposure, average of two or more separate experiments, read-out: IC50 MIP101
Excerpt: as §1, §2
(§3) The HCT 116 colon carcinoma cell line was obtained from the American Type Culture Collection (ATCC, Rockville, Md.). The MIP 101 colon carcinoma cell line was obtained from Dr. Robert Kramer (Bristol Meyers Squibb) and was previously described (Niles R M, Wilhelm S A, Steele G D JR, Burke B, Christensen T, Dexter D, O'Brien M J, Thomas P, Zamcheck N. Isolation and characterization of an undifferentiated human colon carcinoma cell line (MIP-101). Cancer Invest. 1987;5(6):545–52.). The 1A9 and the 1A9PTX22 ovarian tumor cell lines were obtained from Dr. Tito Fojo, Medicine Branch, Division of Clinical Sciences, National Cancer Institute, National Institutes of Health, Bethesda, Md. 20892. The 1A9 is a clone of the ovarian carcinoma cell line, A2780 (Giannakakou P, Sackett, D L, Kang Y-K, Zhan Z, Buters J T M, Fojo T, Poruchynsky MS. Paclitaxel-resistant human ovarian cancer cells have mutant δ-tubulins that impaired paclitaxel-driven polymerization. J. Biol. Chem. 1997, 272(4):17118–17125). The 1A9PTX22 subline was isolated as an individual clone from the 1A9 cell line in a single step selection by exposure to 5 ng/mL paclitaxel in the presence of 5 μg/mL of verapamil. All cell lines were used between passages 4–20 following thawing. MIP-101 colon carcinoma, HCT 116 colon carcinoma, 1A9 ovarian carcinoma and 1A9PTX22 ovarian carcinoma cell lines are maintained and plated in RPMI 1640 medium containing 10% fetal bovine serum.
(§4) Cells are trypsinized and counted using a hemacytometer to determine cell concentrations. Cells were then plated in their respective maintenance media (200 μL/well) in 96-well plates at the following concentrations: MIP-101, 2000 cells/well; HCT 116, 2000 cells/well; 1A9, 10000 cells/well; and 1A9PTX22, 10000 cells/well. […] Initial cell densities, assayed one day after plating, are roughly 0.10–0.20 A540 absorbance units greater than the media blank. Ninety-six well plates were seeded on day 0 and the test compounds are added on day 1. A “time 0” plate was created that received media only in row A and one cell line/row in rows B–E. The “time 0” plate was processed 24 hours after plating (at the time when drugs were added to experimental plates), as follows: 5 micoliters of the MTT stock solution (0.5 mg/mL in PBS) was added to each well and then incubated for three hours at 37° C., 5% CO2, in a humidified environment. Media was then carefully and completely removed. Plates were allowed to dry in the dark. DMSO (dimethylsulfoxide) was added to each well (100 μL/well) and plates were placed on an orbital shaker for 2 hours. […]

[3] = tested on: 1A9PTX22 ovarian carcinoma; format: cell-based, human; details: 3-day exposure, paclitaxel-resistant subline, average of two or more separate experiments
Excerpt: as §1, §2, §3, §4

[4] = tested on: 1A9 ovarian carcinoma; format: cell-based, human; details: 3-day exposure, average of two or more separate experiments
Excerpt: as §1, §2, §3, §4

Row | Compound | IC50 [1] | IC50 [2] | IC50 [3] | IC50 [4] | IC50 ([1]; Homo sapiens, HCT-116, 72 h) | IC50 ([2]; Homo sapiens, 72 h) | IC50 ([3]; Homo sapiens, 1A9/ptx-22, 72 h) | IC50 ([4]; Homo sapiens, 72 h)
1 | (2R,3S,4S,5S,7S,8Z,10S,11S,12S,13Z,16S,17R,18S,19S,20S)-19-[(aminocarbonyl)oxy]-3,5,7,11,17-pentahydroxy-2,3,4,10,12,14,16,18,20-nonamethyl-21-(phenylmethoxy)-8,13-heneicosadienoic acid δ-lactone [Ex. 1] | 200 nM | 3800 nM | 180 nM | 30 nM |  |  |  | 
2 | CC(=O)O[C@H]1C(=O)[C@@]2(C)[C@H]([C@H](OC(=O)c3ccccc3)[C@]3(O)C[C@H](OC(=O)[C@H](O)[C@@H](NC(=O)c4ccccc4)c4ccccc4)C(C)=C1C3(C)C)[C@]1(OC(C)=O)CO[C@@H]1C[C@@H]2O [paclitaxel, reference compound] |  |  |  |  | 0.3 nM | 200 nM | 1 nM | 47 nM
3 | C=C/C=C\[C@H](C)C(OC(N)=O)C(C)C(O)C(C)C(=O)N(C)C[C@H](C)[C@@H](O)[C@@H](C)/C=C\C(O)C[C@@H]1OC(=O)[C@H](C)C(O)C1C (stereo partly drawn) [Ex. 2, (2R,3S,4R,5S,7S,8Z)-13-[[(2R,3S,4S,5S,6S,7Z)-5-[(aminocarbonyl)oxy]-3-hydroxy-2,4,6-trimethyl-1-oxo-7,9-decadienyl]methylamino]-3,5,7,11-tetrahydroxy-2,4,10,12-tetramethyl-8-tridecenoic acid δ-lactone] |  |  |  |  | 13000 nM | 20000 nM | 6000 nM | 4000 nM
